Measured values from patent US11529359B2, “Use of GABAA receptor modulators for treatment of itch” (UNIVERSITÄT ZÜRICH, priority 2016, dated 2022).

Tests used:
chloroquine-induced itch = chloroquine-induced itch (cheek injection) in wild-type mice; assay type: in vivo, wild-type C57BL6/J mice; conditions: p.o.; wild-type mice; 100 μg chloroquine
Description: Acute itch was assessed in mice that received intradermal microinjections of pruritogens or 0.9% saline into the right cheek, which had been shaved at least one day before the experiment. In two sets of experiments that addressed the contribution of GABAARs in primary and secondary pruritoceptors, pruritogens were injected in the right thigh (FIG. 17). Before injection, mice were acclimatized to a 15 cm diameter cylindrical enclosure for more than 30 min with cage bedding on the ground. Background white noise generated by a radio in the room at ambient volume was applied to prevent auditory distraction. A 30 gauge needle was inserted bevel-up and pushed 5 mm horizontally into the skin beyond the point of insertion, before injection of the pruritogen (in a total volume of 10 μl). No anesthesia was used. Correct injection was confirmed by the appearance of a slightly domed bulla upon injection. […] Videos were analyzed off-line. Scratching of the hind paw directed to the ipsilateral cheek was counted in bouts, with one scratching bout defined as an instance when the mouse lifted its paw to scratch until it returned the paw to the cage floor. In case of experiments in which the pruritogen was injected in the skin of the thigh, the time spent biting the injected skin area was counted in s/min as a measure of itch.

α5GABAARs = experiment: GABA-evoked currents, recombinant GABAARs in HEK293 cells (α5); assay type: cell-based; conditions: HEK293 cells transiently transfected
Description: (§1) HEK293 cells were transfected using lipofectamine LTX (Dugue, G. P., et al. Neuron, 2009, 61, 126-139). To ensure expression of the γ2 subunit (required for modulation of GABAARs by BDZs) in all recorded cells, the inventors transfected cells with a plasmid expressing the γ2 subunit plus eGFP from an IRES, and only selected eGFP-positive cells for recordings. The transfection mixture contained (in μg): 1 α1, 1 β2, 3 γ2/eGFP (used as a marker of successful transfection) or 1 αx, 1 β3, 3 γ2/eGFP in case of α2, α3, or α5GABAARs. Recordings were made 18-36 hrs after transfection. Whole-cell patch-clamp recordings of GABA-evoked currents were made at room temperature (20-24° C.) and at a holding potential of −60 mV. Recording electrodes were filled with solution containing (in mM): 120 CsCl, 10 EGTA, 10 HEPES (pH 7.40), 4 MgCl2, 0.5 GTP and 2 ATP. The external solution contained (in mM): 150 NaCl, 10 KCl, 2.0 CaCl2, 1.0 MgCl2, 10 HEPES (pH 7.4), and 10 glucose. GABA was applied to the recorded cell using a manually controlled pulse (4-6 s) of a low sub-saturating GABA concentration (ECS). ECs values of GABA were determined for all subunit combinations analyzed. […] Imax was determined as the average maximal current elicited by a concentration of 1 mM GABA. […]

muscle relaxation = experiment: horizontal wire test (muscle relaxation); assay type: in vivo, mice; conditions: p.o., 60-120 min after administration
Description: (§2) Locomotor activity, muscle relaxant effects and motor coordination were assessed as described previously (Ralvenius, W. T., Benke, D., Acuña, M. A., Rudolph, U. & Zeilhofer, H. U. Nature Communications, 2015, 6). […] Motor coordination was assessed with a rotarod accelerating from 4 rpm to 40 rpm within 5 min. […] Fifteen measurements were taken per mouse. To assess muscle relaxation, mice were placed with their forepaws onto a metal horizontal wire placed 20 cm above ground.

α2β3γ2 GABAARs = biological target: T1, α2β3γ2 GABAARs (Homo sapiens, UniProt P18507+P47869); experiment: GABA-evoked currents, recombinant GABAARs in HEK293 cells (α2); assay type: cell-based; conditions: HEK293 cells transiently transfected
T1 construct: expressed in transfected cells; host or cells: HEK293 cells (ATCC), transient transfection
T1 sequence (P47869 29-451): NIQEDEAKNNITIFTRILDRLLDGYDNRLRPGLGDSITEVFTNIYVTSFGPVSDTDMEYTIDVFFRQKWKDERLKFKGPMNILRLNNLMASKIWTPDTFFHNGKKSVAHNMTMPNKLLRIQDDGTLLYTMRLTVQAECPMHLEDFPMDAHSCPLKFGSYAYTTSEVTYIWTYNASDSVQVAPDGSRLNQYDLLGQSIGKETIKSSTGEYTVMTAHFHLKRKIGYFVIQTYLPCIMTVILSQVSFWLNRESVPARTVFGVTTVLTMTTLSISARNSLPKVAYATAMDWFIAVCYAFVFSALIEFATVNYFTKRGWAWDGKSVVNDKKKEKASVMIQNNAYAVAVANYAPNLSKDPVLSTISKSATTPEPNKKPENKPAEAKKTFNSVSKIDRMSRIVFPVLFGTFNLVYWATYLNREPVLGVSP
T1 sequence (P28472 26-473 partner): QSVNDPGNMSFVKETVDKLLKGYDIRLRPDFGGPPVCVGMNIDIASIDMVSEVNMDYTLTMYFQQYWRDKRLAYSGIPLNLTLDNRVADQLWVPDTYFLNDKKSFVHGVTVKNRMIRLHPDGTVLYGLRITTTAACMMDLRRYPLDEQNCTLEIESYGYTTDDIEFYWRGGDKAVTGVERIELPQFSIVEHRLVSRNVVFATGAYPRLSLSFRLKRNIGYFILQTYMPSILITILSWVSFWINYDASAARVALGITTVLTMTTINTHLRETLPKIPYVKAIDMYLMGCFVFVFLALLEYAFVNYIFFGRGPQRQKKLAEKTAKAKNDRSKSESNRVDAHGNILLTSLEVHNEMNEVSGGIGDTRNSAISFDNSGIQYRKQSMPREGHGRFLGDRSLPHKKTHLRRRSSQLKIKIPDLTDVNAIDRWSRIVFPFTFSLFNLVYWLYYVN
T1 sequence (P18507 40-467 limits assumed): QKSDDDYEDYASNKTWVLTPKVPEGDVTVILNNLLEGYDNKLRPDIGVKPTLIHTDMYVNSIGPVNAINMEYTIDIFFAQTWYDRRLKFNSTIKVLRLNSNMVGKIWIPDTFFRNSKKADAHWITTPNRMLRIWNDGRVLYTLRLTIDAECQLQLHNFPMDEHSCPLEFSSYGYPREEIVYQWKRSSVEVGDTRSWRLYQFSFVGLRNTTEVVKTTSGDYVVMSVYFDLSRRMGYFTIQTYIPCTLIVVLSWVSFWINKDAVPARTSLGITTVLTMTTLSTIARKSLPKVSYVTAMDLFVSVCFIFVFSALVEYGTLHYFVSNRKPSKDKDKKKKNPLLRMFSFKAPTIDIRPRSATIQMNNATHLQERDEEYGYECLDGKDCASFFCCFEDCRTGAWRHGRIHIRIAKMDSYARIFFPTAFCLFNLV
Description: as §1

locomotor activity = experiment: open field test, locomotor activity / sedation; assay type: in vivo, wild-type mice
Description: After injection, the mice were placed in an open field arena and their activity was recorded for one hour starting one hour after injection.
as §2

GABAARs = experiment: recombinant GABAARs in HEK293 cells, direct activation in the absence of GABA; assay type: cell-based
Description: as §1

[1] = test system: brain membranes prepared from α1,2,3,5 H→R point mutated mice; assay type: binding, mice (RRRR); conditions: 4 nM [3H]Ro 15-4513; increasing concentrations; n=4
Description: The supernatant was centrifuged for 20 min at 30,000 g and the resulting crude membrane pellet was washed once with buffer. […] Non-specific [^3H]Ro 15-4513 binding was assessed by addition of 10 μM flumazenil to the reaction. Incubation was stopped by rapid vacuum filtration using a semiautomatic cell harvester (Skatron Instruments) and washed filters were subjected to liquid scintillation counting.

α-Me-5HT-induced itch = experiment: α-methyl 5-HT-induced itch (cheek injection) in wild-type mice; assay type: in vivo, wild-type mice (129X1/SvJ); conditions: 1 mg/kg p.o.; 20 μg α-methyl 5-HT

CC(C)(O)c1cnn2c(-c3ccc(F)c(-c4c(F)cccc4C#N)c3)cnc2n1 [TPA023B, 6,2′-difluoro-5′-[3-(1-hydroxy-1-methylethyl)imidazo[1,2-b][1,2,4]triazin-7-yl]biphenyl-2-carbonitrile]
doses at which chloroquine-induced scratching behavior was reduced (chloroquine-induced itch): 0.03 mg/kg | potentiation of GABA-induced currents (α5GABAARs): only very weak potentiating effects | muscle relaxation in the horizontal wire test (muscle relaxation): did not cause muscle relaxation | activity at the benzodiazepine binding site (potentiation of GABA-induced currents) (α2β3γ2 GABAARs): partial agonistic activity | locomotor activity in the open field test (locomotor activity; 1 and 3 mg/kg p.o.): increased locomotor activity | sedative effects (locomotor activity; doses up to 3 mg/kg (p.o.)): did not show sedative effects | activity in open field arena vs vehicle (locomotor activity; per oral 10 mg/kg and 30 mg/kg, recorded 1-2 h after injection): significant increase in activity | activation of GABAARs in the absence of GABA (GABAARs): did not activate | displacement of [3H]Ro 15-4513 binding [1]: failed to displace | antipruritic action in wild-type mice (α-Me-5HT-induced itch): strong antipruritic actions
